Earlier results in patent US11779563B2, “Oral cannabinoid pharmaceutical compositions and methods of treating sleep disorders” (Curio IP, LLC, priority 2021, dated 2023).

Details: following smoking of the equivalent of 10-15 mg over 5-7 minutes

CCCCCc1cc(O)c2c(c1)OC(C)(C)[C@@H]1CCC(C)=C[C@@H]21 [THC, (−)-(6aR,10aR)-6,6,9-trimethyl-3-pentyl-6a,7,8,10a-tetrahydro-6H-benzo[c]chromen-1-ol]
peak plasma levels: around 100 μg/L
